The text below walks through data of patent publication US20050267016A1, “CD-10 activated prodrug compounds” (priority 2001, published 2005).

Values joined by “and” are separate entries in the source; they are usually repeats but may differ in a detail not shown here. Equal values may be shown once. Read-outs that look alike come from different tables or passages of the source. Marks after values point to notes of the source that are not given here.

The test system of series [1] is Parental CHO cells. The series is described as follows: Conversion to Leu-Dox or Gly-Dox in cell supernatants, parental CHO. In kind it is cell-based, Chinese Hamster. The conditions noted are these: 10 μM, 37° C. As for the experimental part: (§1) To directly ask the question of whether the CD10 expressing cells were capable of cleaving the prodrug, supernatants from CD10 transfected or parental CHO cells treated with the compounds were collected. […] After incubation for 1, 4, and 24 hours, an aliquot of each supernatant was transferred to a 96-well plate and frozen at −20° C. Samples were subsequently thawed and analyzed by reversed phase HPLC (4.6×50 mm 21 TSK Super-ODS column) with fluorescence detection after dilution with 3 volumes of acetonitrile, removal of precipitate by centrifugation, and further dilution into 3 volumes of water. When incubated with Suc-βAla-Leu-Ala-Leu-Dox, there was no detectable metabolism to Leu-Dox observed with the parental cell line while clone 8 (CD10 transfected) generated significant levels of Leu-Dox from Suc-βAla-Leu-Ala-Leu-Dox (Table 27).

For series [2], the system named is LNCaP prostate carcinoma xenograft. Description: LNCaP prostate carcinoma xenograft in nude mice, Q7D × 3 (Examples 30, 31). As for the experimental part: In this model, 7.5 million LNCaP cells resuspended in 0.1 ml of phosphate buffered saline and 0.1 ml of Matrigel (Becton Dickinson) were injected into the side of male nude mice fed on high fat diet.
For series [3], the system named is Ramos cells (CD10pos). Description: cells. Particulars: ratio of IC50. As for the experimental part: (§2) Suspension cells, BALL-1, Ramos and Namalwa cells were cultured in RPMI media containing 10% heat inactivated fetal calf serum (FCS). On the day of the study, the cells were collected, washed and resuspended at a concentration of 0.5×10^6 cells/ml in RPMI containing 10% FCS. 100 µl of cell suspension was added to 96 well plates. […] Finally 10 μl of a 100 μCi/ml ^3H-thymidine was added per well and the plates were incubated for 24 hours. The plates were harvested using a 96 well Harvester (Packard Instruments) and counted on a Packard Top Count counter. Four parameter logistic curves were fitted to the ^3H-thymidine incorporation as a function of drug molarity using Prism software to determine IC50 values.
(§3) The effect of two known inhibitors of CD10 on prodrug activity in Ramos, LNCaP and Ball-1 cells was evaluated. The IC50 of Suc-βAla-Ile-Ala-Leu-Dox was determined in the presence of increasing concentration of the CD10 inhibitors, phosphoramidon and thiorphan.

Series [4] deals with LNCaP xenografts. The series is described as follows: LNCaP xenograft in SCID mice, Q6DX2, equitoxic comparison (Example 27). In kind it is in vivo, C.B-17.SCID mice. As for the experimental part:
All compounds except Suc-βAla-Leu-Ala-Leu-Dox (three levels) were dosed at two levels with the goal to get a dose response for all compounds.
Knowing that the LNCaP tumor bearing nude mice have weight loss, we chose very conservative dose levels for each compound estimated to be well-tolerated equitoxic doses based on earlier studies and SD-MTD results. The high dose level for repeat dosing is usually 80% of their SD-MTD, and the low dose level is 80% of the high dose level. Accordingly, groups of ten male CD17.SCID mice, subcutaneously injected with 2.5 million LNCaP cells, were treated intravenously with the compounds at the levels described in Table 22 at six day intervals for a total of two identical doses (Q6DX2).
LNCaP tumors grew well in SCID mice, but the SCID mice with LNCaP tumor xenografts experienced severe weight loss, as 80% of control mice had more than 25% of weight loss by the end of the study. Nevertheless, the efficacy of different treatments at approximately equitoxic levels were compared based on the time it took for 50% of mice to reach toxic weight loss and the total numbers of mice with toxic weight loss at the end of study.

The subject of series [5] is human colon carcinoma (HT-29) xenograft. An excerpt: Healthy young male nude mice were subcutaneously injected with 5 million of HT-29 cells.
The conditions of series [6]: mouse, in vivo, iv, 100 umol/kg.
Description: (§5) Plasma was obtained from three individual animals in each group at 5 minutes, 1, 2, 4, or 6 hr.
Series [7] relates to Namalwa cells (CD10pos). The series is described as follows: cells. In kind it is cell-based. Particulars: ratio of IC50. How it is done: as §2
In series [8] the test system is CD10 transfected CHO cells (clone 8). Description: Conversion to Leu-Dox or Gly-Dox in cell supernatants, CD10 transfected CHO. In kind it is cell-based, Chinese Hamster. Particulars: Clone 8 (CD10 transfected), 10 μM, 37° C. As for the experimental part:
as §1

For series [9] the following is noted: mouse, in vivo, iv, 100 umol/kg. This is another data set of the same source.
Description: as §5
The test system of series [10] is Porcine Kidney CD10. Description: Hydrolysis by purified CD10. In kind it is biochemical. Particulars: for % hydrolysis/10 hr: 12.5 μg/mL, 37° C., pH 7.4, product Leu-doxorubicin; for Fraction hydrolyzed relative to standard: standard Suc-βAla-Leu-Ala-Leu-Dox. How it is done: Reaction products were analyzed by HPLC with fluorescence detection. Rates were essentially linear over the incubation period. The observed product was Leu-doxorubicin.

Series [11] concerns LNCaP human prostate carcinoma xenografts. How it is done: LNCaP human prostate carcinoma cells express high levels of CD10 on the surface. Suc-βAla-Leu-Ala-Leu-Dox and Suc-Leu-Ala-Gly-Dox were tested at a single dose level Q7Dx5. […] The mice were weighed and tumors were measured (by caliper) at least once a week prior to start of dosing (Day 0), then twice a week during the study. Immediately before the start of dosing (Study Day −2 to Day 0), mice were randomized to various groups based on the weight of the tumors. […] Mice were euthanized after the tumors reached a cutoff weight of 1.5 g (cancer endpoint), or when mice suffered over 25% weight loss (toxic endpoint). Studies were terminated at Day 60.

For series [12], the system named is LNCaP (prostate carcinoma) cells. The conditions noted are these: ratio of IC50. How it is done:
(§4) Adherent cells, LNCaP (prostate carcinoma), HT-29 (colon carcinoma) and PC-3 (prostate carcinoma), were cultured in DMEM media containing 10% heat inactivated fetal calf serum (FCS). On the day of the study the cells were detached from the plate with a trypsin solution. The collected cells were washed and resuspended at a concentration of 0.25×10^6 cells/ml in DMEM containing 10% FCS. 100 μl of cell suspension were added to 96 well plates and the plates were incubated for 3 hours to allow the cells to adhere. […] The plates were then incubated for 24 hours, pulsed with 10 μl of a 100 μCi/ml ^3H-thymidine and incubated for an additional 24 hours (total incubation time 48 hours). The plates were harvested using a 96 well Harvester (Packard Instruments) and counted on a Packard Top Count Counter. Four parameter logistic curves were fitted to the ^3H-thymidine incorporation as a function of drug molarity using Prism software to determine IC50 values.
as §4, with “carcinoma), PC-3 (prostate” for “carcinoma), HT-29 (colon”, “and 22 RV1” for “and PC-3”, “with 1:0” for “with 10”
as §3

Series [13] in a line: Second single dose Maximum Tolerated Dose (SD-MTD) study, 49 days. Particulars: mouse, in vivo. As for the experimental part: In a second single dose Maximum Tolerated Dose (SD-MTD) study, groups of five normal ICR mice were administered intravenous bolus doses of Suc-βAla-Leu-Ala-Leu-Dox. The mice were observed daily for 49 days and body weights measured twice weekly.
In a second single dose Maximum Tolerated Dose (SD-MTD) study, groups of five normal ICR mice were administered intravenous bolus doses of Suc-Leu-Ala-Leu-Dox. The mice were observed daily for 49 days and body weights measured twice weekly.
In a second single dose Maximum Tolerated Dose (SD-MTD) study, groups of five normal ICR mice were administered intravenously bolus doses of Suc-Ile-Ala-Leu-Dox. The mice were observed daily for 49 days and body weights measured twice weekly.
In a second single dose Maximum Tolerated Dose (SD-MTD) study, groups of five normal ICR mice were administered intravenous bolus doses of Suc-βAla-Ile-Ala-Leu-Dox. The mice were observed daily for 49 days and body weights measured twice weekly.

The nature of series [14]: Pharmacokinetic/metabolism study, single IV bolus. Particulars: mice.
Description: as §5
Series [15] concerns Porcine Kidney CD10. Description: Hydrolysis by purified CD10. Particulars: release of Leu-pNA vs Leu-Dox, 37° C., pH 7.4. In kind it is biochemical.
Setting [16] is: 40 mg/kg every 7 days for 5 doses.
Where [17] appears, read: 67 mg/kg every 7 days for 5 doses.

For orientation: AUC(0-t) means the area under the concentration-time curve up to a stated or last time point. High values mean more exposure, low ones less exposure. The term MTD denotes the largest dose that counted as tolerated. Lower therefore signals poorer tolerability.

As to `COc1cccc2c1C(=O)c1c(O)c3c(c(O)c1C2=O)C[C@@](O)(C(=O)CO)C[C@@H]3O[C@H]1C[C@H](NC(=O)CNC(=O)[C@H](C)NC(=O)[C@H](CC(C)C)NC(=O)CCC(=O)O)[C@H](O)[C@H](C)O1` [Suc-Leu-Ala-Gly-Dox], in [1], the “Conversion rate to Leu-Dox or Gly-Dox” value stood at 0.06 mM/h and the “Percent Conversion/Hour to Leu-Dox or Gly-Dox” value is recorded as 0.57 Percent Conversion/Hour. The “TGI D22” value in series [2] (110 mg/kg (70 Dox equi) Q7D × 3) worked out at 39.7±29.5%. In addition, the “Survivor D36” value in series [2] (110 mg/kg Q7D × 3, N 8) is listed as “D36: 6*”. The “Toxic Endpoint” value in [2] (110 mg/kg Q7D × 3, >20% body weight loss) stood at 0. In series [2] (110 mg/kg Q7D × 3, tumors reaching 1000 mg), the “Cancer Endpoint” value worked out at 2. In series [3], the “Ratio Ball-1:Ramos” value is 1. Moreover, in [4] (110 mg/kg Q6DX2), the “% Weight Loss at the end of study” value was determined as 80% and the “Time: 50% Weight Loss” value was 33 days. In series [4] (132 mg/kg Q6DX2), the “% Weight Loss at the end of study” value is reported as 80% and the “Time: 50% Weight Loss” value was 29 days. For the same compound, in [5] (setting [16]), the “% TGI (Day 14, mean)” value amounted to 4.0%; the “% TGI (Day 25, median)” value was 37.2%; the “Calculated Mean Day of Survival” value is 39 days and 38.8 ± 6.6 days; the “Mean Tumor Weight at Day 14” value is recorded as 704 ± 92 mg. In [5] (setting [16]), the “Median Tumor Weight at Day 25” value was 952 mg, the “Number of Long Term Survivors” value was 1/7 and the “Toxicity (Weight Loss >20%)” value was 0/7. In series [5] (setting [17]), the “% TGI (Day 14, mean)” value is 33.2%*; the “% TGI (Day 25, median)” value turned out to be 43.5%; the “Calculated Mean Day of Survival” value is 41 days and 41.3 ± 7.2 days; the “Mean Tumor Weight at Day 14” value was found to be 490 ± 124 mg. For the same compound, in series [5] (setting [17]), the “Median Tumor Weight at Day 25” value was found to be 857 mg, the “Number of Long Term Survivors” value was 3/7 and the “Toxicity (Weight Loss >20%)” value was 0/7. In addition, in [6], the “Plasma AUC0-6 hr of AL-Dox or AG-Dox*” value is 2.1 µM·h and the “Plasma AUC0-6 hr of L-Dox or G-Dox*” value was found to be 0.9 µM·h. Also, the “Ratio Ball-1:Namalwa” value in series [7] came to 1. Besides, in [8], the “Conversion rate to Leu-Dox or Gly-Dox” value turned out to be 0.06 mM/h and the “Percent Conversion/Hour to Leu-Dox or Gly-Dox” value amounted to 0.61 Percent Conversion/Hour. Also, the area under the curve AUC(0-t) in series [9] is 310 µM·h. Moreover, in [10], the “% hydrolysis/10 hr” value was 0 % hydrolysis/10 hr and the “Fraction hydrolyzed relative to standard” value came out at 0. Also, the “Tumor Weight (mg) D12” value in [11] (Dose 110 mg/kg (Table 19), Q7DX5) was “D12: 795 ± 177 (n = 7) mg”. Besides, the “Toxicity (Weight Loss >25%)” value in [11] (Dose 110 mg/kg (Table 19), Q7DX5, mice affected/total) is given as 1/7. Besides, the “Tumor Growth Inhibition (% over control)” value in series [11] (mouse, in vivo, 110 mg/kg) is listed as 1.4%. Further, in series [12], the “Ratio PC-3:LNCaP” value is 3.

On to `COc1cccc2c1C(=O)c1c(O)c3c(c(O)c1C2=O)C[C@@](O)(C(=O)CO)C[C@@H]3O[C@H]1C[C@H](NC(=O)[C@H](CC(C)C)NC(=O)[C@H](C)NC(=O)[C@H](CC(C)C)NC(=O)CCC(=O)O)[C@H](O)[C@H](C)O1` [Suc-Leu-Ala-Leu-Dox], for which the MTD in [13] turned out to be 42 mg/kg. The compound also displayed an MTD in series [13] (iv) of 71 mg/kg. Also, in series [3], the “Ratio Ball-1:Ramos” value is reported as about 30. For the same compound, in series [4] (58.3 mg/kg Q6DX2), the “Time: 50% Weight Loss” value came to 33 days and the “Time: 100% Weight Loss” value came to 61 days. In series [4] (70.5 mg/kg Q6DX2), the “Time: 50% Weight Loss” value was found to be 26 days and the “Time: 100% Weight Loss” value came to 47 days. Also, in series [6], the “Plasma AUC0-6 hr of AL-Dox or AG-Dox*” value was determined as 1.6 µM·h and the “Plasma AUC0-6 hr of L-Dox or G-Dox*” value was 5.1 µM·h. In addition, in series [7], the “Ratio Ball-1:Namalwa” value is about 35. For the same compound, the area under the curve AUC(0-t) in series [9] is 634 µM·h. Besides, in [10], the “% hydrolysis/10 hr” value is reported as 8.3 % hydrolysis/10 hr and the “Fraction hydrolyzed relative to standard” value came out at 0.75. Besides, in series [12], the “Ratio PC-3:LNCaP” value is 50. In addition, in series [14], the “Major Plasma Metabolite” value was “Leu-Dox”.

As to Suc-βAla-Leu-Ala-Leu-pNA, the “rate of cleavage relative to Suc-βAla-Leu-Ala-Leu-Dox” value in [15] amounted to 590 times.
